According to patent US20190209581A1, “DOSAGE REGIMEN FOR TREATMENT OF SOLID TUMORS” (Eli Lilly and Company, priority 2016, published 2019):

Key:
[1] = Toxicokinetics in Beagle dogs; assay type: in vivo, dog; conditions: for Cmax: beagle, po
Method: A study is carried out to assess the Toxicity and Toxicokinetics of 4,4,4-trifluoro-N-[(1S)-2-[[(7S)-5-(2-hydroxyethyl)-6-oxo-7H-pyrido[2,3-d][3]benzazepin-7-yl]amino]-1-methyl-2-oxo-ethyl]butanamide in dogs given oral gavage doses of 0 or 1.3 mg/kg once daily for 6 days or 0.3 or 3 mg/kg every other day for a total of 3 doses. 4,4,4-Trifluoro-N-[(1S)-2-[[(7S)-5-(2-hydroxyethyl)-6-oxo-7H-pyrido[2,3-d][3]benzazepin-7-yl]amino]-1-methyl-2-oxo-ethyl]butanamide is combined with a vehicle comprising 1% carboxymethylcellulose sodium, 0.25% polysorbate 80 and 0.05% Dow Corning® Antifoam 1510-US in purified water. Dogs (beagle), Covance Research Products, 1 animal/sex/group are fed daily (soon after dosing) and are fasted overnight prior to scheduled chemistry blood collections and necropsy. The test compound is administered by oral gavage in a volume of 2 mL/kg body weight. The duration of the study for all groups is 6 days.
Groups 01 and 04, Blood is collected at the following times relative to dosing on Day 1: 0.5, 1, 2, 4, 8, and 24 hours postdose.
Groups 02 and 04: Blood is collected at the following times relative to dosing on Days 2 and 6: 0 (predose; Day 6 only), 0.5, 1, 2, 4, 8, 24, 30, and 48 hours postdose.

[2] = test system: human triple negative invasive ductal breast carcinoma (EL1997); assay: Tumor growth inhibition, patient-derived tumor model EL1997; assay type: in vivo; conditions: EL1997 in mice, oral 10 mg/kg (Q2Dx7), 11-days OFF, 8 mg/kg (Mon, Wed, Fri)x4; p <0.0001
Method: To evaluate in vivo efficacy and effect of 4,4,4-Trifluoro-N-[(1S)-2-[[(7S)-5-(2-hydroxyethyl)-6-oxo-7H-pyrido[2,3-d][3]benzazepin-7-yl]amino]-1-methyl-2-oxo-ethyl]butanamide on inhibition of Notch processing pharmacodynamics (PD), several cell lines- and patient-derived xenograft models are used. A2780 is a human ovarian cell line (Sigma-Aldrich, No. 93112519); SW480 is a human colorectal cell line (ATCC No. CCL-228); HCT 116 is a human colorectal cell line (ATCC No. CCL-247); U-87 MG is a human glioblastoma cell line (ATCC No. HTB-14); A375 is a human malignant melanoma cell line (ATCC No. CRL-1619); K-562 is a human chronic myelogenous leukemia (CML) cell line characterized by the presence of a fusion transcript comprised of the Bcr and Abl1 genes (ATCC No. CCL-243); Jurkat; HEL 92.1.7 is a human erythroleukemia cell line (ATCC No. TIB-180). […] Tumor growth and body weight are monitored over time to evaluate efficacy and signs of toxicity. Bidimensional measurements of tumors are performed twice a week and tumor volumes are calculated based on the following formula: (Tumor Volume)=[(L)×(W2)×(Π/6)] where L is mid-axis length and W is mid-axis width. […] The log volume data are analyzed with a two-way repeated measures analysis of variance by time and treatment using the MIXED™ procedures in SAS™ software (version 8.2). […]

[3] = test system: A2780 human ovarian cell line; assay: Tumor growth inhibition, A2780 xenograft; assay type: in vivo; conditions: for % TGI: A2780 in mice
Method: To evaluate in vivo efficacy and effect of 4,4,4-Trifluoro-N-[(1S)-2-[[(7S)-5-(2-hydroxyethyl)-6-oxo-7H-pyrido[2,3-d][3]benzazepin-7-yl]amino]-1-methyl-2-oxo-ethyl]butanamide on inhibition of Notch processing pharmacodynamics (PD), several cell lines- and patient-derived xenograft models are used. A2780 is a human ovarian cell line (Sigma-Aldrich, No. 93112519); SW480 is a human colorectal cell line (ATCC No. CCL-228); HCT 116 is a human colorectal cell line (ATCC No. CCL-247); U-87 MG is a human glioblastoma cell line (ATCC No. HTB-14); A375 is a human malignant melanoma cell line (ATCC No. CRL-1619); K-562 is a human chronic myelogenous leukemia (CML) cell line characterized by the presence of a fusion transcript comprised of the Bcr and Abl1 genes (ATCC No. CCL-243); Jurkat; HEL 92.1.7 is a human erythroleukemia cell line (ATCC No. TIB-180). Each of the cell lines are obtained from the American Type Culture Collection (ATCC) at the ATCC number stated, except the A2780 cell line which is obtained from Sigma-Aldrich at the stated catalog number. The cells are grown in their respective, recommended culture media at 37° C. in 5% CO2 with humidity in the atmosphere. A2780 (2×10^6), SW480 (6×10^6), HCT 116 (6×10^6), U-87 MG (6×10^6), and A-375 (10×10^6) cells in a 1:1 matrigel mix (0.2 mL volume) are implanted by subcutaneous injection in the hind leg of 6-8 weeks of age athymic nude female mice (Harlan Laboratories). K-562 (6×10^6) cells in a 1:1 matrigel mix (0.2 mL volume) are implanted by subcutaneous injection in the hind leg of 6-8 weeks of age CD1 nμ/nμ female mice (Charles River Laboratories). HEL 92.1.7 (7×10^6) in a 1:1 matrigel mix (0.2 mL volume) are implanted by subcutaneous injection in the hind leg of 6-8 weeks of age CB17 severely combined immune deficient female mice (Taconic Farms). Patient-derived tumors are minced into 1-2 mm pieces and mixed with matrigel (1:1) in 0.2 ml volume and implanted by subcutaneous injection in the hind leg of 6-8 weeks of age athymic nude female mice (Harlan Laboratories). Patients-derived tumor models include: human colon carcinoma (EL2144), human triple negative invasive ductal breast carcinoma (EL1997), human colon carcinoma (EL1989, EL 1986), and human glioblastoma (EL 2056) with samples obtained after patient consent and hospital approval from IU Health, Methodist Hospital, Indianapolis, Ind., USA 46206. A total of 7 to 10 mice are used for each group. Just before implantation for A2780, SW480, HEL 92.1.7, A-375, K-562, and patient-derived tumor models, animals are irradiated (450 Total Body Irradiation). Mice are fed ad libitum on normal chow. Treatment is initiated with oral administration (gavage) of compound or vehicle (1% Na-CMC in 0.25% Tween®-80) in 0.2 mL volume when tumor size reached to 150±50 mm^3. At designated time points following treatment, animals are sacrificed by CO2 asphyxiation and cervical dislocation. Tumors are removed and used for PD response analysis. Tumor growth and body weight are monitored over time to evaluate efficacy and signs of toxicity. Bidimensional measurements of tumors are performed twice a week and tumor volumes are calculated based on the following formula: (Tumor Volume)=[(L)×(W2)×(Π/6)] where L is mid-axis length and W is mid-axis width. Tumor volume data are transformed to a log scale to equalize variance across time and treatment groups. The log volume data are analyzed with a two-way repeated measures analysis of variance by time and treatment using the MIXED™ procedures in SAS™ software (version 8.2). The correlation model for the repeated measures is spatial power. Treated groups are compared to the control group at each time point. The MIXED™ procedure is also used separately for each treatment group to calculate adjusted means and standard errors at each time point. Both analyses account for the autocorrelation within each animal and the loss of data that occurs when animals with large tumors are removed from the study early. […]

[4] = Beagle dog, single oral dose 1.3 mg/kg, Subject 0007_M
[5] = Beagle dog, single oral dose 1.3 mg/kg, Subject 0008_F
[6] = Beagle dogs, multiple oral doses (3 doses/week), 0.3 mpk, mean n = 2
[7] = Beagle dogs, multiple oral doses (3 doses/week), 3 mpk, mean n = 2
[8] = Beagle dogs, single oral dose 1.3 mg/kg, Mean, n = 2
[9] = Beagle dogs, single oral dose, 0.3 mpk, mean n = 2
[10] = Beagle dogs, single oral dose, 3 mpk, mean n = 2

Work on C[C@H](NC(=O)CCC(F)(F)F)C(=O)N[C@@H]1C(=O)N(CCO)c2ncccc2-c2ccccc21 [Compound 1, 4,4,4-trifluoro-N-[(1S)-2-[[(7S)-5-(2-hydroxyethyl)-6-oxo-7H-pyrido[2,3-d][3]benzazepin-7-yl]amino]-1-methyl-2-oxo-ethyl]butanamide] yielded an AUC [1, 4] of 4030 ng·h/mL, a Tmax [1, 4] of 30 min and an AUC [1, 5] of 4500 ng·h/mL. It also gave a Tmax [1, 5] of 30 min, an AUC [1, 6] of 3070 ng·h/mL and a Tmax [1, 6] of 45 min. The AUC [1, 7] was 14400 ng·h/mL, the Tmax [1, 7] was 45 min and the AUC [1, 8] was 4270 ng·h/mL. The Tmax [1, 8] was 30 min, the AUC [1, 9] was 1290 ng·h/mL and the Tmax [1, 9] was 30 min. For the same compound, the AUC [1, 10] was 5860 ng·h/mL, the Tmax [1, 10] was 30 min and the Cmax ([1]; both sexes, dog, blood, 1.3 mg/kg, Beagle dogs, single oral dose 1.3 mg/kg, Mean, n = 2) was 1940 ng/mL. For the same compound, the Cmax ([1]; both sexes, dog, in vivo, 0.3 mg/kg, Beagle dogs, multiple oral doses (3 doses/week), 0.3 mpk, mean n = 2) was 2460 ng/mL, the Cmax ([1]; both sexes, dog, in vivo, 0.3 mg/kg, Beagle dogs, single oral dose, 0.3 mpk, mean n = 2) was 309 ng/mL and the Cmax ([1]; both sexes, dog, in vivo, 3 mg/kg, Beagle dogs, multiple oral doses (3 doses/week), 3 mpk, mean n = 2) was 4530 ng/mL. The Cmax ([1]; both sexes, dog, in vivo, 3 mg/kg, Beagle dogs, single oral dose, 3 mpk, mean n = 2) was 2730 ng/mL, the “24 hour drug concentrations” value ([1]; dog, daily and TIW regimens) was “minimal” and the Cmax ([1]; female, dog, blood, 1.3 mg/kg, Beagle dog, single oral dose 1.3 mg/kg, Subject 0008_F) was 2070 ng/mL. The Cmax ([1]; male, dog, blood, 1.3 mg/kg, Beagle dog, single oral dose 1.3 mg/kg, Subject 0007_M) was 1800 ng/mL, the “% TGI” value [2] was 80.28 (<0.0001) % and the “% TGI” value ([3]; oral 1.5 mg/kg, QDx26, p <0.05 to <0.01) was 33.36 (<0.05 to %. The “% TGI” value ([3]; oral 3 mg/kg, (BID)QDx7 + (BID)Q2Dx7, p <0.0001) was 72.35 (<0.0001) %, the “% TGI” value ([3]; oral 3 mg/kg, Q2Dx13, p <0.05 to <0.01) was 36.65 (<0.05 to % and the “% TGI” value ([3]; oral 3 mg/kg, QDx21, p <0.0001) was 46.60 (<0.0001) %. The “% TGI” value ([3]; oral 6 mg/kg, Q2Dx13, p <0.05 to <0.01) was 36.33 (<0.05 to %, the “% TGI” value ([3]; oral 7 mg/kg, Q2Dx13, p <0.0001) was 56.95 (<0.0001) % and the “% TGI” value ([3]; oral 8 mg/kg, Q2Dx13, p <0.0001) was 68.60 (<0.0001) %. The “% TGI” value ([3]; oral 10 mg/kg, Q2Dx11, p <0.0001) was 56.55 (<0.0001) %, the “% TGI” value ([3]; oral 10 mg/kg, Q2Dx13, p <0.0001) was 51.11 (<0.0001) % and the “% TGI” value ([3]; oral 10 mg/kg, Q3Dx8, p <0.0001) was 32.99 (<0.0001) %. The “Effect of alternative dosing regimens on tumor growth inhibition” value ([3]; xenograft models of Table 5) was “more frequent dosing affords greater efficacy”.
